In one data set the target is ErbB2 V777L (Homo sapiens (Human), UniProt P04626, V777L). Put plainly: ErbB enzyme assay (CisBio HTRF-KinEASE-TK), ErbB2 V777L. In kind it is biochemical. In short, it runs like this:
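HTRF KinEASE-TK tyrosine-kinase read-out of substrate phosphorylation after a final 1 h at ambient temperature, from the 655/620 nm emission ratio.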
(In general: TR-FRET usually uses a lanthanide donor and a delayed reading to cut background.)

In the next data set the target is EGFR WT (Homo sapiens (Human), UniProt P00533). Put plainly: ErbB enzyme assay (CisBio HTRF-KinEASE-TK), EGFR WT. In kind it is biochemical. The note with it: ATP at Km (25 μM), 1 h incubation. In short, it runs like this: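 Potency comes from a homogeneous time-resolved fluorescence kinase format measuring tyrosine substrate phosphorylation. Reactions and detection steps each run 1 h at ambient temperature. IC50 values are interpolated from 4-parameter logistic fits of percent-of-control data.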
Chain of EGFR WT (P00533 25-1210): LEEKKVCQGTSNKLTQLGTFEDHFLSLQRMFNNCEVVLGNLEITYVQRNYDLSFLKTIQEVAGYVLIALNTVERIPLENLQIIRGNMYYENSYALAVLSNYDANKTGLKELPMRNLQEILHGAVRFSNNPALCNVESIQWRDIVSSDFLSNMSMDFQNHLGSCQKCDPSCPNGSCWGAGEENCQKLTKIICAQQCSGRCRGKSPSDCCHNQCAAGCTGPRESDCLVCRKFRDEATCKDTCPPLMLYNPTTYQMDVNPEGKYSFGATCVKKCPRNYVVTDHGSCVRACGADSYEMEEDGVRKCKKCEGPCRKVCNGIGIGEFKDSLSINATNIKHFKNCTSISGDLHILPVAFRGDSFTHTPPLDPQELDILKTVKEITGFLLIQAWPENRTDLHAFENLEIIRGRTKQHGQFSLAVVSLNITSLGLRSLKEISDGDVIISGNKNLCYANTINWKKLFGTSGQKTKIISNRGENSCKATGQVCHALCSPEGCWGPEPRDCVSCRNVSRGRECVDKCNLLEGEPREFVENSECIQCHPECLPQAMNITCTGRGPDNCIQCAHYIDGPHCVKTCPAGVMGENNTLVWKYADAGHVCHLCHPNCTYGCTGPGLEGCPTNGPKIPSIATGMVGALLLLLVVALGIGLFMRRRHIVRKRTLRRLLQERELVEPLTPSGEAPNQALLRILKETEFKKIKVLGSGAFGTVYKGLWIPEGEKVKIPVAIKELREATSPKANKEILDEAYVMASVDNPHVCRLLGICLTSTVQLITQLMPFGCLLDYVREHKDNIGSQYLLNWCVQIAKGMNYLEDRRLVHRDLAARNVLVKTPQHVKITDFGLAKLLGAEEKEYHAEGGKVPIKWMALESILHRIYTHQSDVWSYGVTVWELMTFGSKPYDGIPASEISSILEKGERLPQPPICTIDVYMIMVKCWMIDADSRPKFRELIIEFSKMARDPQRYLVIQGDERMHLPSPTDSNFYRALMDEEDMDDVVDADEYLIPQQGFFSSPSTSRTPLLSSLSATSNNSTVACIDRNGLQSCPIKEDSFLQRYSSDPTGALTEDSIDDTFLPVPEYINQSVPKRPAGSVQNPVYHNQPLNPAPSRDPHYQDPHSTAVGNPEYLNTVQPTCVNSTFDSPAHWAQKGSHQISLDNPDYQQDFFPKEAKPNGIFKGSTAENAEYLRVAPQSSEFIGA

A short description of data set [1]: Blood brain barrier penetration assay in CD-1 mice (short oral absorption model, Kpuu brain). The following applies: mouse, brain and plasma, male CD-1 mice, 1 h post-dose, Kpuu brain = conc (brain)/conc (plasma) x (fu brain/fu plasma). It counts as in vivo. The protocol:
In vitro plasma and brain binding assays were carried out using the equilibrium dialysis method. EDTA-anticoagulated plasma and diluted brain homogenate (1:3 with DPBS pH 7.4) were spiked with 2 μM test compound and dialyzed against an equal volume of 100 μL 100 mM sodium phosphate buffer (pH 7.4) at 37° C. for 4 h in a slowly rotated plate. At the end of the dialysis 50 μL aliquots from the buffer side and matrix side of the dialysis device were taken into new 96-well plates. An equal volume of opposite blank matrix (buffer or matrix) in each sample was added to reach a final volume of 100 μL. All samples were processed by protein precipitation for LC/MS/MS analysis. Unbound fraction (fu) of test compound was calculated by the ratio of buffer side response to the brain homogenate/plasma side response, and unbound fraction (fu,pl and fu,br) of test compound in non-diluted plasma and brain tissue were calculated from measured fu in homogenate and plasma with the following equation: fu,pl or fu,br=1/D/((1/(F/T)-1)+1/D). F is the free compound concentration as determined by the calculated concentration on the buffer side of the membrane and T is the total compound concentration as determined by the calculated concentration on the matrix side of the membrane. D is the dilution factor (D equals 1 for plasma, and 4 for brain).
A short oral absorption model is an in-vivo screening model to identify brain penetration of a compound. Three male CD-1 mice were orally dosed with an appropriate vehicle. At the 1 h timepoint post-dose, blood samples were collected via cardiac puncture, placed into EDTA anti-coagulated tubes, and spiked with 1% 1 mM quinidine (aq). The samples were placed on wet ice until centrifugation at 4000×g for 10 min. Brain tissue was rinsed with saline and the liquid was drained. The brains were weighed and transferred to tubes for homogenization. Each tube contained 1 g tissue, 9 mL buffer (1:2 v/v MeOH:15 mM PBS), and a spike of 1% 1 mM quinidine (aq). All samples were stored at −80° C. prior to LC/MS/MS analysis. Standards were prepared by spiking blank plasma and brain homogenate. Aliquots (10 μL) of sample, calibration standard, quality control, dilution quality control, single blank, and double blank were added to the 96-well plate respectively. Homogenized brain tissue along with plasma samples were precipitated by adding 190 μL cold MeCN containing internal standard (the double blank sample was quenched with 190 L MeCN). The mixture was vortex-mixed for 5 min at 1000 rpm and centrifuged for 10 min at 3220×g, 4° C. […] The free fraction of test compound in biological matrix was determined by using in vitro plasma and brain tissue free fraction. Kpuu brain was calculated by the equation: Kpuu brain=cone (brain)/conc (plasma)×(fu brain/fu plasma).

Chain of ErbB2 V777L (P04626 23-1255 V777L): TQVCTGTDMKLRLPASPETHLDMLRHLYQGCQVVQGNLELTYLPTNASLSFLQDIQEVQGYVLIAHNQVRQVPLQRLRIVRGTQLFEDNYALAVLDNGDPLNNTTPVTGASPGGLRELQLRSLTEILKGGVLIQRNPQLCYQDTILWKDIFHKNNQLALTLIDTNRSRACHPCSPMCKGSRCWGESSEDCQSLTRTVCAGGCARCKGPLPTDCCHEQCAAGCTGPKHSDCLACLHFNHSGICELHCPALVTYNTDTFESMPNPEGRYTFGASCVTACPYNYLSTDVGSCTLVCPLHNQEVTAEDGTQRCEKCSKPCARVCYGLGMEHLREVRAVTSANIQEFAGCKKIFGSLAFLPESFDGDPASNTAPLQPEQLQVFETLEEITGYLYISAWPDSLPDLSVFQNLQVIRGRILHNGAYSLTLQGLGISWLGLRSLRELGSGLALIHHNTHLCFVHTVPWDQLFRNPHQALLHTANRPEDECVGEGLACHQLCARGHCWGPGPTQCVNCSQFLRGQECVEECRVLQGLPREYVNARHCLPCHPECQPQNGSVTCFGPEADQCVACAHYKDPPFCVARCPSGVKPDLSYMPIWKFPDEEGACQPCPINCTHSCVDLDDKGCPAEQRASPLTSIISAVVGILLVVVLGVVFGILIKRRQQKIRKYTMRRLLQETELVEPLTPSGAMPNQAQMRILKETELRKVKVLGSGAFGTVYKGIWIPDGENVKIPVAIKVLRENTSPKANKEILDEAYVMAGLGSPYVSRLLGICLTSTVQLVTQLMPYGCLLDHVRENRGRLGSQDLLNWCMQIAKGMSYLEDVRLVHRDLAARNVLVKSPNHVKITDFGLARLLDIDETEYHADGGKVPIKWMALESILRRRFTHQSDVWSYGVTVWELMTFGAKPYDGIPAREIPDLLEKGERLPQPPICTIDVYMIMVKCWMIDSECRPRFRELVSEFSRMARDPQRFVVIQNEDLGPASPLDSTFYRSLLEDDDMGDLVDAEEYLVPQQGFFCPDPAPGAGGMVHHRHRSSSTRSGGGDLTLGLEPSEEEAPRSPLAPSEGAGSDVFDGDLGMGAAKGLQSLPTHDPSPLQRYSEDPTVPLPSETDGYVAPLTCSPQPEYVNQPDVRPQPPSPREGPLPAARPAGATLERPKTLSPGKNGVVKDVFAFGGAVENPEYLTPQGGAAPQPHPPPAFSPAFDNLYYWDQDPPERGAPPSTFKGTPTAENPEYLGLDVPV

Turning to `C=CC(=O)N1CCN(c2ncc3ncnc(Nc4ccc(Oc5cc(F)c6c(c5)ncn6C)c(C)c4)c3n2)CC1` [Compound 64, 1-(4-(8-((4-((7-fluoro-1-methyl-1H-benzo[d]imidazol-5-yl)oxy)-3-methylphenyl)amino)pyrimido[5,4-d]pyrimidin-2-yl)piperazin-1-yl)prop-2-en-1-one], the IC50 against ErbB2 V777L and against EGFR WT was below 50 nM each time. Moreover, the Kp uu at 1 h in data set [1] came to 0.12.

(Values after patent publication US20250129078A1, “ERBB2 INHIBITORS” (Cogent Biosciences, Inc., priority 2023, published 2025).)
